Laboratory results taken from US20250066365A1, “Ribonucleoside Analogues Against -Sars-Cov-2” (priority 2021, published 2025).
Values after ≈ are worked out from the molar mass of the structure shown.

Experiments:
SARS-CoV-2 nsp14 = SARS-CoV-2 nsp14 (Severe acute respiratory syndrome coronavirus 2, UniProt P0DTD1); settings: cited from earlier work
in vitro [1] = settings: African green monkey
[2] = test system: SARS-CoV-2 USA_WA1/2020 strain; assay: microbe, parasite or virus in culture; format: cell-based
in vitro [3] = settings: African green monkey; remark: listed apart in the source
[4] = test system: SARS-CoV-2 USA_WA1/2020 strain; assay: Activity against SARS-CoV-2 in Vero E6 cells (cytopathic effect, visual and neutral red); format: cell-based; settings: read-out: EC50 (mM/mL) USA_WA1/2020 strain
[5] = CC50 (mg/mL) Vero 76, Neutral red (Cytopathic effect/Toxicity)
[6] = CC50 (mg/mL) Vero 76, Visual (Cytopathic effect/Toxicity)
[7] = Severe acute respiratory syndrome coronavirus 2, Vero 76, Neutral red (Cytopathic effect/Toxicity), Vero 76 cells, read-out: EC50 (mg/mL) USA_WA1/2020 strain
[8] = Severe acute respiratory syndrome coronavirus 2, Vero 76, Visual (Cytopathic effect/Toxicity), Vero 76 cells, read-out: EC50 (mg/mL) USA_WA1/2020 strain
[9] = CC50 (mM/mL) Vero E6, Neutral red (Cytopathic effect/Toxicity)
[10] = CC50 (mM/mL) Vero E6, Visual (Cytopathic effect/Toxicity)
[11] = Severe acute respiratory syndrome coronavirus 2, Vero C1008, Neutral red (Cytopathic effect/Toxicity)
[12] = Severe acute respiratory syndrome coronavirus 2, Vero C1008, Visual (Cytopathic effect/Toxicity)

| Structure (SMILES) | CC50 (in vitro [3]; [9]) | CC50 (in vitro [3]; [10]) | EC50 [4, 11] | EC50 [4, 12] | further results |
| --- | --- | --- | --- | --- | --- |
| N#Cc1cn([C@@H]2O[C@H](CSCC[C@H](N)C(=O)O)C(O)[C@@H]2O)c2ncnc(N)c12 (stereo partly drawn) [SS148] |  |  |  |  | concentration range of nsp14 inhibition (in words) (SARS-CoV-2 nsp14): submicromolar to nanomolar |
| Nc1ncnn2c([C@@H]3O[C@H](CO)[C@@H](O)[C@H]3O)cc(/C=C/c3ccc(C(F)(F)F)cc3)c12 [Compound 4.2e, 7-((E)-4-(Trifluoromethyl)styryl)-4-aza-7,9-dideazaadenosine] |  |  |  |  | CC50 (in vitro [1]; [5]): 32 µg/mL (≈ 73.3 µM); CC50 (in vitro [1]; [6]): 32 µg/mL (≈ 73.3 µM); EC50 [2, 7]: > 0.032 mg/mL; EC50 [2, 8]: > 0.032 mg/mL; activity against SARS-CoV-2 (in words) ([2]; Vero 76 cells): inactive |
| Nc1ncnn2c([C@@H]3O[C@H](CO)[C@@H](O)[C@H]3O)cc(/C=C/c3ccsc3)c12 [Compound 4.2k, 7-((E)-2-(Thiophen-3-yl)vinyl)-4-aza-7,9-dideazaadenosine] | 0.0031 mM | 0.0032 mM | > 0.0031 mM | > 0.0032 mM |  |
| CCC/C=C/c1cc([C@@H]2O[C@H](CO)[C@@H](O)[C@H]2O)n2ncnc(N)c12 [Compound 4.2m, 7-((E)-pent-1-en-1-yl)-4-aza-7,9-dideazaadenosine] | > 0.1 mM | > 0.1 mM | > 0.1 mM | > 0.1 mM |  |
| Nc1ncnn2c([C@@H]3O[C@H](CO)[C@@H](O)[C@H]3O)cc(/C=C/c3cccs3)c12 [Compound 4.2j, 7-((E)-2-(Thiophen-2-yl)vinyl)-4-aza-7,9-dideazaadenosine] | 0.032 mM | 0.028 mM | > 0.032 mM | > 0.028 mM |  |
| C=Cc1cc([C@@H]2O[C@H](CO)[C@@H](O)[C@H]2O)n2ncnc(N)c12 [Compound 4.2a, 7-Vinyl-4-aza-7,9-dideazaadenosine] |  |  |  |  | CC50 (in vitro [1]; [5]): 4.7 µg/mL (≈ 16.1 µM); CC50 (in vitro [1]; [6]): 3.2 µg/mL (≈ 10.9 µM); cytotoxicity (in words) (Vero 76 cells): significant cytotoxicity; EC50 [2, 7]: 0.00016 mg/mL (≈ 0.547 µM); EC50 ([2]; Severe acute respiratory syndrome coronavirus 2, Vero 76, Vero 76 cells, read-out: EC50 against SARS-CoV-2): 0.00016 mg/mL (≈ 0.547 µM); EC50 [2, 8]: < 0.0001 mg/mL; activity against SARS-CoV-2 (in words) ([2]; Vero 76 cells): active |
| Nc1ncnn2c([C@@H]3O[C@H](CO)[C@@H](O)[C@H]3O)cc(/C=C/C3CC3)c12 [Compound 4.2h, 7-((E)-2-Cyclopropylvinyl)-4-aza-7,9-dideazaadenosine] | > 0.1 mM | > 0.1 mM | > 0.1 mM | > 0.1 mM |  |
| Nc1ncnn2c([C@@H]3O[C@H](CO)[C@@H](O)[C@H]3O)cc(/C=C/c3ccc(Cl)cc3)c12 [Compound 4.2f, 7-((E)-4-Chlorostyryl)-4-aza-7,9-dideazaadenosine] | 0.032 mM | 0.032 mM | > 0.032 mM | > 0.032 mM |  |
| Nc1ncnn2c([C@@H]3O[C@H](CO)[C@@H](O)[C@H]3O)cc(/C=C/c3cccc(F)c3)c12 [Compound 4.2g, 7-((E)-3-Fluorostyryl)-4-aza-7,9-dideazaadenosine] | 0.032 mM | 0.032 mM | > 0.032 mM | > 0.032 mM |  |
| Nc1ncnn2c([C@@H]3O[C@H](CO)[C@@H](O)[C@H]3O)cc(/C=C/C3CCCCC3)c12 [Compound 4.2l, 7-((E)-2-Cyclohexylvinyl)-4-aza-7,9-dideazaadenosine] | > 0.1 mM | > 0.1 mM | > 0.1 mM | > 0.1 mM |  |
| Nc1ncnn2c([C@@H]3O[C@H](CO)[C@@H](O)[C@H]3O)cc(/C=C/c3ccc(F)cc3)c12 [Compound 4.2d, 7-((E)-4-Fluorostyryl)-4-aza-7,9-dideazaadenosine] |  |  |  |  | CC50 (in vitro [1]; [5]): 5.8 µg/mL (≈ 15 µM); CC50 (in vitro [1]; [6]): 3.2 µg/mL (≈ 8.28 µM); EC50 [2, 7]: > 0.0058 mg/mL; EC50 [2, 8]: > 0.0032 mg/mL |
| Nc1ncnn2c([C@@H]3O[C@H](CO)[C@@H](O)[C@H]3O)cc(/C=C/C3CCCC3)c12 [Compound 4.2i, 7-((E)-2-Cyclopentylvinyl)-4-aza-7,9-dideazaadenosine] | > 0.1 mM | > 0.1 mM | > 0.1 mM | > 0.1 mM |  |
| Nc1ncnn2c([C@@H]3O[C@H](CO)[C@@H](O)[C@H]3O)cc(/C=C/c3ccccn3)c12 [Compound 4.2b, 7-((E)-2-(Pyridin-2-yl)vinyl)-4-aza-7,9-dideazaadenosine] |  |  |  |  | CC50 (in vitro [1]; [5]): 0.32 µg/mL (≈ 0.866 µM); CC50 (in vitro [1]; [6]): 0.32 µg/mL (≈ 0.866 µM); cytotoxicity (in words) (Vero 76 cells): potent cytotoxicity; EC50 [2, 7]: < 0.0001 mg/mL; EC50 [2, 8]: > 0.00032 mg/mL |
| Cc1ccc(/C=C/c2cc([C@@H]3O[C@H](CO)[C@@H](O)[C@H]3O)n3ncnc(N)c23)cc1 [Compound 4.2c, 7-((E)-4-Methylstyryl)-4-aza-7,9-dideazaadnosine] |  |  |  |  | EC50 against SARS-CoV-2 [2]: 0.3 µg/mL (≈ 0.784 µM); activity against SARS-CoV-2 (in words) ([2]; Vero 76 cells): potent antiviral activity |
| Nc1ncnc2c1ncn2[C@@H]1O[C@H](CSCCNC(=O)NCCc2ccccc2)[C@@H](O)[C@H]1O [DS0464] |  |  |  |  | concentration range of nsp14 inhibition (in words) (SARS-CoV-2 nsp14): low-micromolar |
